Experimental data taken from ChEMBL document CHEMBL1201862, “PubChem BioAssay data set” (2004).
The source made the active and inactive calls.

Tests used:
Assay type in all cases: functional
[1] = biological target: Casein kinase I isoform alpha (Homo sapiens, UniProt P48729)
[2] = biological target: T1, Tyrosine-protein kinase receptor TYRO3 (Homo sapiens, UniProt Q06418);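 note: TYRO3 value obtained as one member of a kinome-wide profiling panel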
T1 sequence (Q06418 whole entry): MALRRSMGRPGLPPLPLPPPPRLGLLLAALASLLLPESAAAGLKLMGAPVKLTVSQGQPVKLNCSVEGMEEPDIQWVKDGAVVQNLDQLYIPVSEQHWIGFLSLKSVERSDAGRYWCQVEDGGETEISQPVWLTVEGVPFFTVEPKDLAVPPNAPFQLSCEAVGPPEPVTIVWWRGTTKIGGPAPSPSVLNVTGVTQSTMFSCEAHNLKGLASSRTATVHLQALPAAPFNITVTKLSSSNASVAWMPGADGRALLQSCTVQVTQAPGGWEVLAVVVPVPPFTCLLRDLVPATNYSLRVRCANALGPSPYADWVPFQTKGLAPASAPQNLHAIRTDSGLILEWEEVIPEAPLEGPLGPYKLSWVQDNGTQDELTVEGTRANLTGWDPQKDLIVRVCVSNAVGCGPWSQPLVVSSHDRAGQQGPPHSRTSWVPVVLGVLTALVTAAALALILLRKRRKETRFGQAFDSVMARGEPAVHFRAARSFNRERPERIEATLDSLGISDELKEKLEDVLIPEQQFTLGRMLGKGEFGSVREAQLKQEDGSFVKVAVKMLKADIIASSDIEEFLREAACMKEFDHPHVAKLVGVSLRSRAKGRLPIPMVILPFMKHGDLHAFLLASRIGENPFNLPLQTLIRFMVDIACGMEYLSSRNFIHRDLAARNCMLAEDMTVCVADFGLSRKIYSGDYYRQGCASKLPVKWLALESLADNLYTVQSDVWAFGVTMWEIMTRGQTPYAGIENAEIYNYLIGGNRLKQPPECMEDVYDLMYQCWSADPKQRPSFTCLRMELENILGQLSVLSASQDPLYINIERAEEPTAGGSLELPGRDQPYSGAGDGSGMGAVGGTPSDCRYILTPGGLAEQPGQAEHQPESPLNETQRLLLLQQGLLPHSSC

[3] = biological target: Leukocyte tyrosine kinase receptor (Homo sapiens, UniProt P29376); assay: Navigating the Kinome. Panel member name: LTK
[4] = biological target: T2, Serine/threonine-protein kinase Chk1 (Homo sapiens, UniProt O14757);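 note: measured as one member of a kinome-wide kinase profiling panel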
T2 sequence (O14757 whole entry): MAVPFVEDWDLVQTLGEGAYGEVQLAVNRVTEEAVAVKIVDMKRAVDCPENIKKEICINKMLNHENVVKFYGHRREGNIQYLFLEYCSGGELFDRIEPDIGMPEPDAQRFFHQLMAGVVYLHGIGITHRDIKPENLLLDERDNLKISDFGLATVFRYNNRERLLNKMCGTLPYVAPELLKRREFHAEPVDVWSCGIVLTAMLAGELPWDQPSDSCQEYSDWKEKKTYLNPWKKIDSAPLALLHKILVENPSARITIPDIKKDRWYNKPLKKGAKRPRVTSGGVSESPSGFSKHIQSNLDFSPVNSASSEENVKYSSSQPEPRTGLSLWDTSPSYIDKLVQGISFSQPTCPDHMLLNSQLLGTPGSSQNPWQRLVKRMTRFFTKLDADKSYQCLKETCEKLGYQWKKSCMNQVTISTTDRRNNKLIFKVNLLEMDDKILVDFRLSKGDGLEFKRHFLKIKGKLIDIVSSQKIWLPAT

[5] = biological target: G protein-coupled receptor kinase 5 (Homo sapiens, UniProt P34947); assay: Navigating the Kinome. Panel member name: GPRK5
Sequence of G protein-coupled receptor kinase 5 (P34947 whole entry): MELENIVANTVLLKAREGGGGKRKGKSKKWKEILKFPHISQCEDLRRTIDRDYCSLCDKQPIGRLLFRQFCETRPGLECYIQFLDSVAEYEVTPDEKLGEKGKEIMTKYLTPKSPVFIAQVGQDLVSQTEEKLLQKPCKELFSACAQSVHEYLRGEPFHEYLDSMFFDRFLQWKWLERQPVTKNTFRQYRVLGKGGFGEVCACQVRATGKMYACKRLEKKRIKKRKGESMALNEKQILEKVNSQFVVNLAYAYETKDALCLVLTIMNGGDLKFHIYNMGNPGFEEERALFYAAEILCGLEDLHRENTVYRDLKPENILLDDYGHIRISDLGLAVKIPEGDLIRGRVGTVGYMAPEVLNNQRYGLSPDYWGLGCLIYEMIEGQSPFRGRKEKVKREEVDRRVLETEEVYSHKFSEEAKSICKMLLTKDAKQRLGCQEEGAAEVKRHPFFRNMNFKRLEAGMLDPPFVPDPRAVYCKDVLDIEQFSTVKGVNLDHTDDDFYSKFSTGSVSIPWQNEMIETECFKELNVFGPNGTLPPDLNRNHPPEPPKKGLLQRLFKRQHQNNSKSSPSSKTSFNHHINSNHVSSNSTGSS

[6] = biological target: Dual specificity tyrosine-phosphorylation-regulated kinase 1B (Homo sapiens, UniProt Q9Y463); assay: Navigating the Kinome. Panel member name: DYRK1B
Sequence of Dual specificity tyrosine-phosphorylation-regulated kinase 1B (Q9Y463 whole entry, the tested form may be a part): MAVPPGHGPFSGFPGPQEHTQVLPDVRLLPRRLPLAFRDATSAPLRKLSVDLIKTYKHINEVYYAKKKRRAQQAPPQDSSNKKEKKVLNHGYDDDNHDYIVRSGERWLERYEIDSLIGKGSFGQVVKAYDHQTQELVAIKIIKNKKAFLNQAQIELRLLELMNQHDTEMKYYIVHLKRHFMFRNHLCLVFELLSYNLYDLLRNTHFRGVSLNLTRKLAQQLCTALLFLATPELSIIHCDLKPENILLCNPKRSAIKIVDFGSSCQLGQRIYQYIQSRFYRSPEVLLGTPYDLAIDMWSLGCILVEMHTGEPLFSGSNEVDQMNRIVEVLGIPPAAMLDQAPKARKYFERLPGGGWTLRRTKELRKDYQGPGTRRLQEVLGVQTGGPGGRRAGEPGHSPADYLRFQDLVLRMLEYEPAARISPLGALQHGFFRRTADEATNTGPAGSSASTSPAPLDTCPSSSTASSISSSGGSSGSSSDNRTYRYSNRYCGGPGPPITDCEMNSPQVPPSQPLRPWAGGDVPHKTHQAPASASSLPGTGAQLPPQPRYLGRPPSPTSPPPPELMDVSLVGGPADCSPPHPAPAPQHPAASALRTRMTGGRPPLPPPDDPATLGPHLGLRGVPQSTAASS

LIM domain kinase 1 = LIM domain kinase 1 (Homo sapiens, UniProt P53667); assay: Navigating the Kinome. Panel member name: LIMK1
Sequence of LIM domain kinase 1 (P53667 whole entry, the tested form may be a part): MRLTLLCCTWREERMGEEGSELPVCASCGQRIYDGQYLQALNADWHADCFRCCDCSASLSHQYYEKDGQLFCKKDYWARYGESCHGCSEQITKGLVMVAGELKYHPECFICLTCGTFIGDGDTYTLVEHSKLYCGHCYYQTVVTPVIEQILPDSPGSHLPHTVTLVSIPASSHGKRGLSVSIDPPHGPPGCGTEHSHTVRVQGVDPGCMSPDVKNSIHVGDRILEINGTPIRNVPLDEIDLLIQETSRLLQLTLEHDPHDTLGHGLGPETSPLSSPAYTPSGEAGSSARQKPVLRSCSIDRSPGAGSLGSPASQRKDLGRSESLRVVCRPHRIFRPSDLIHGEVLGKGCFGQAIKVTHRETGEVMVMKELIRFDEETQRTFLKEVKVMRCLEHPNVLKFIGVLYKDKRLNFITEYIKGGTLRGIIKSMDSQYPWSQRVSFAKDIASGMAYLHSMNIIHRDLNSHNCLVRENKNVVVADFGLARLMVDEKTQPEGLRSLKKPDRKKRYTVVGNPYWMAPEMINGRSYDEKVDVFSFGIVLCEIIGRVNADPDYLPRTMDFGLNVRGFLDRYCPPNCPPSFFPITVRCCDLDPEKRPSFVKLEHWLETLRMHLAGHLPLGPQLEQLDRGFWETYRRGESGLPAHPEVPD

[7] = biological target: Dual specificity protein kinase CLK4 (Homo sapiens, UniProt Q9HAZ1)
Sequence of Dual specificity protein kinase CLK4 (Q9HAZ1 whole entry): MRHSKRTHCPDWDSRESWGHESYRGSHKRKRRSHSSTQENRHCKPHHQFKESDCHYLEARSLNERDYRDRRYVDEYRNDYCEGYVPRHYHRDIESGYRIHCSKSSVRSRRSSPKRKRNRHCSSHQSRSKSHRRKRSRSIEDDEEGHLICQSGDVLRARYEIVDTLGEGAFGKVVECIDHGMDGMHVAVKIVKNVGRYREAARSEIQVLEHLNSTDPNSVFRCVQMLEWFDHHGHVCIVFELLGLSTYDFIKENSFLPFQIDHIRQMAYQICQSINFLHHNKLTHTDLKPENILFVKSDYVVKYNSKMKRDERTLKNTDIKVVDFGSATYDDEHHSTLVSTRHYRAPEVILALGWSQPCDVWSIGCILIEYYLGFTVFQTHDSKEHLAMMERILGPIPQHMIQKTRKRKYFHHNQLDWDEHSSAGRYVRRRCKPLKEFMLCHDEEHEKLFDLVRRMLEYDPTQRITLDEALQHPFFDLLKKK

[8] = biological target: Leucine-rich repeat serine/threonine-protein kinase 2 (Homo sapiens, UniProt Q5S007);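 note: value from a broad kinome-wide panel profiling study in which LRRK2 was one of the kinases tested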
[9] = biological target: Serine/threonine-protein kinase pim-1 (Homo sapiens, UniProt P11309)
Sequence of Serine/threonine-protein kinase pim-1 (P11309 whole entry): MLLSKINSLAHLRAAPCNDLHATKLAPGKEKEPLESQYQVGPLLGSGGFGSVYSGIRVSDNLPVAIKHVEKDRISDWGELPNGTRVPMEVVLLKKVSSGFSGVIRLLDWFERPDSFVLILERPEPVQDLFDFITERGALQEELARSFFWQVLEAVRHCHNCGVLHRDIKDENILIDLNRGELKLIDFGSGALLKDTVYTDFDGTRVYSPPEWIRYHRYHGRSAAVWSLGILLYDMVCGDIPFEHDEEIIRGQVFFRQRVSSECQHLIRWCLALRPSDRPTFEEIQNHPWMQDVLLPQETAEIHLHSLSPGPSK

[10] = biological target: Dual specificity mitogen-activated protein kinase kinase 2 (Homo sapiens, UniProt P36507); assay: Navigating the Kinome. Panel member name: MAP2K2
Sequence of Dual specificity mitogen-activated protein kinase kinase 2 (P36507 whole entry): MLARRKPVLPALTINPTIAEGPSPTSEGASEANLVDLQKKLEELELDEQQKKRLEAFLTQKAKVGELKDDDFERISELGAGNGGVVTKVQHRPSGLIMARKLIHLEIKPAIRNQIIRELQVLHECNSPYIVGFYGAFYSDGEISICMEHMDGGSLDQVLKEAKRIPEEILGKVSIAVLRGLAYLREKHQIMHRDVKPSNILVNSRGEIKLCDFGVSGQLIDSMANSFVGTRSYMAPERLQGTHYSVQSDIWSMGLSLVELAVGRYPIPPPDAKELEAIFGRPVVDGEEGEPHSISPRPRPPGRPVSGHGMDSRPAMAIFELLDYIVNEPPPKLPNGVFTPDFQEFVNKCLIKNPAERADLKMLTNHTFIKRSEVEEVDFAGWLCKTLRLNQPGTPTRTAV

[11] = biological target: Mitogen-activated protein kinase kinase kinase kinase 2 (Homo sapiens, UniProt Q12851);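 note: measured as one member of a kinome-wide kinase panel, with MAP4K2 as the panel entry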
Sequence of Mitogen-activated protein kinase kinase kinase kinase 2 (Q12851 whole entry): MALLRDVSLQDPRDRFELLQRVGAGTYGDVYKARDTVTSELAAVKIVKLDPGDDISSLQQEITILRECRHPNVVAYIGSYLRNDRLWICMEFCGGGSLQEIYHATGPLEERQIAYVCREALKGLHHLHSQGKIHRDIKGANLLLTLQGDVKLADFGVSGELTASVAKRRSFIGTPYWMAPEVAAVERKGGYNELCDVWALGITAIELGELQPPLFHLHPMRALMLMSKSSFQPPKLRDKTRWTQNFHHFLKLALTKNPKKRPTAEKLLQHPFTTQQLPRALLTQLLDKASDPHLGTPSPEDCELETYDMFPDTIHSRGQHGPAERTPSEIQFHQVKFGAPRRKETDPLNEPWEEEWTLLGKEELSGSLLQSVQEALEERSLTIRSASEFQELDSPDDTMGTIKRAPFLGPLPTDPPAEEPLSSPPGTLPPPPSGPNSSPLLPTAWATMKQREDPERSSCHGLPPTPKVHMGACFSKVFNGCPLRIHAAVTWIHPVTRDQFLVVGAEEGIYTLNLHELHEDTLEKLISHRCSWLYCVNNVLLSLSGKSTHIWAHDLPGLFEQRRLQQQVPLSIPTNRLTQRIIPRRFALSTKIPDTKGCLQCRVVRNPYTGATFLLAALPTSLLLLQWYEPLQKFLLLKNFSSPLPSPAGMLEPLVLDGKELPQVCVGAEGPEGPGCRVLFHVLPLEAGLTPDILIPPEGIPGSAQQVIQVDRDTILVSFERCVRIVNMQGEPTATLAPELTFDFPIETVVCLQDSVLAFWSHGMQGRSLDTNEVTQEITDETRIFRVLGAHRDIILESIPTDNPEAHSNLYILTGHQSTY

[12] = biological target: Cyclin-dependent kinase 8 (Homo sapiens, UniProt P49336); assay: Navigating the Kinome. Panel member name: CDK8
[13] = biological target: T3, Small ubiquitin-related modifier 1 (Homo sapiens, UniProt P63165); assay: inhibitors of SUMO1 peptide binding, dose response, biochemical, fluorescence polarization, uHTS hits (AID 624382); settings: read-out: IC50_Mean
T3 sequence (P63165 whole entry): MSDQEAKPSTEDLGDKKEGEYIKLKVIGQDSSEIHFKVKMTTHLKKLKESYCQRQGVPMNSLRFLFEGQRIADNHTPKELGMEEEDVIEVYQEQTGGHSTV

[14] = biological target: T3, Small ubiquitin-related modifier 1; assay: inhibitors of SUMO1 partner interactions, dose response, biochemical, FRET (AID 624383); settings: read-out: IC50_Mean
[15] = biological target: T4, Multidrug resistance protein CDR2 (Candida albicans (strain SC5314 / ATCC MYA-2876) (Yeast), UniProt P78595); assay: CaCDR2 efflux pump inhibitors in yeast, dose response, S. cerevisiae AD1-8u, singleplex, Cherry Pick1 hits (AID 588604)
T4 sequence (P78595 whole entry): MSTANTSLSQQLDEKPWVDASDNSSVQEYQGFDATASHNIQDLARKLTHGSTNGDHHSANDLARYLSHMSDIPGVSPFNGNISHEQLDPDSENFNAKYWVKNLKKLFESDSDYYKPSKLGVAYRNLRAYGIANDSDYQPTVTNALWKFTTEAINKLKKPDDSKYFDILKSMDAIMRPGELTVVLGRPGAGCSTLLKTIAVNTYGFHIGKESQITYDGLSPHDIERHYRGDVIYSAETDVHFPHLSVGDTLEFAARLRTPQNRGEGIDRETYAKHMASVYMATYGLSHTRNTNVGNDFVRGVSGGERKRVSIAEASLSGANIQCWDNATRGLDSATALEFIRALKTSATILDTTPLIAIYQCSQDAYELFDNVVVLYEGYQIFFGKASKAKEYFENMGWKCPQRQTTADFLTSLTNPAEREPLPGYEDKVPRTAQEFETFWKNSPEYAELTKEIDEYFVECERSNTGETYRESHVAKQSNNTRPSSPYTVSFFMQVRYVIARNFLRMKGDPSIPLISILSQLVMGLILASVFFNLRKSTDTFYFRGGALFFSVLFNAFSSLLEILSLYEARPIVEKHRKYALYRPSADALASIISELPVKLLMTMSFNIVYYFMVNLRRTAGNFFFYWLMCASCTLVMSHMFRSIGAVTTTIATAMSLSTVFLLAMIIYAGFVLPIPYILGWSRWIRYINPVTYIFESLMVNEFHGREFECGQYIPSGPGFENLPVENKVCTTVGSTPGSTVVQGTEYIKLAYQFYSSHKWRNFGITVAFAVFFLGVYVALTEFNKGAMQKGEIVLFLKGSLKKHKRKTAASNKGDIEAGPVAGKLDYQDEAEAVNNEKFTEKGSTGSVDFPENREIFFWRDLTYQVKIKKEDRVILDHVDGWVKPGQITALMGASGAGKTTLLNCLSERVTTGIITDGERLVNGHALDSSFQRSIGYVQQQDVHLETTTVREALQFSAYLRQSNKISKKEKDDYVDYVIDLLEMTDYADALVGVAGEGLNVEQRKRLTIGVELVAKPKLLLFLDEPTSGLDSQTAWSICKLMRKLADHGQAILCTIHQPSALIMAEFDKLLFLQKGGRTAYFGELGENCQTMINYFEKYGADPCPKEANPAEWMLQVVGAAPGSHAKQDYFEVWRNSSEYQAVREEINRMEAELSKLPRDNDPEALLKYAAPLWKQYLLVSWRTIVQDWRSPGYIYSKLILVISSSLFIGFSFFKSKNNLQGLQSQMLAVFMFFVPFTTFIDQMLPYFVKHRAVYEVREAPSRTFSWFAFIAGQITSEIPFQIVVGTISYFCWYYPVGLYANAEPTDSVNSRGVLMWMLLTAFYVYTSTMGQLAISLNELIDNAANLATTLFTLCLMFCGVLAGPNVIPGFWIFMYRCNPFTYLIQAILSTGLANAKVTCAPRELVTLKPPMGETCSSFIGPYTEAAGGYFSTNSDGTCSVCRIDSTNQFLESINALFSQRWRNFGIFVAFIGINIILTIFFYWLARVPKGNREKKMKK

[16] = Counterscreen for IDE inhibitors: Luminescence-based cell-based high throughput dose response assay to identify compounds that are cytotoxic to HEK cells. [Related pubchem assays: 434962 (Primary screen (IDE inhibitors in singlicate)), 449730 (Counterscreen (Cytotoxicity in triplicate)), 435028 (Confirmation (IDE inhibitors in triplicate)) …; settings: HEK293
Insulin-degrading enzyme = biological target: T5, Insulin-degrading enzyme (Homo sapiens, UniProt P14735); assay: Dose Response: Fluorescence polarization-based cell-based high throughput dose response assay for inhibitors of insulin-degrading enzyme (IDE). [Related pubchem assays: 434962 (Primary screen (IDE inhibitors in singlicate)), 449730 (Counterscreen (Cytotoxicity in triplicate)), 435028 (Confirmation (IDE inhibitors in triplicate)), 434984 (Summary …
T5 sequence (P14735 whole entry): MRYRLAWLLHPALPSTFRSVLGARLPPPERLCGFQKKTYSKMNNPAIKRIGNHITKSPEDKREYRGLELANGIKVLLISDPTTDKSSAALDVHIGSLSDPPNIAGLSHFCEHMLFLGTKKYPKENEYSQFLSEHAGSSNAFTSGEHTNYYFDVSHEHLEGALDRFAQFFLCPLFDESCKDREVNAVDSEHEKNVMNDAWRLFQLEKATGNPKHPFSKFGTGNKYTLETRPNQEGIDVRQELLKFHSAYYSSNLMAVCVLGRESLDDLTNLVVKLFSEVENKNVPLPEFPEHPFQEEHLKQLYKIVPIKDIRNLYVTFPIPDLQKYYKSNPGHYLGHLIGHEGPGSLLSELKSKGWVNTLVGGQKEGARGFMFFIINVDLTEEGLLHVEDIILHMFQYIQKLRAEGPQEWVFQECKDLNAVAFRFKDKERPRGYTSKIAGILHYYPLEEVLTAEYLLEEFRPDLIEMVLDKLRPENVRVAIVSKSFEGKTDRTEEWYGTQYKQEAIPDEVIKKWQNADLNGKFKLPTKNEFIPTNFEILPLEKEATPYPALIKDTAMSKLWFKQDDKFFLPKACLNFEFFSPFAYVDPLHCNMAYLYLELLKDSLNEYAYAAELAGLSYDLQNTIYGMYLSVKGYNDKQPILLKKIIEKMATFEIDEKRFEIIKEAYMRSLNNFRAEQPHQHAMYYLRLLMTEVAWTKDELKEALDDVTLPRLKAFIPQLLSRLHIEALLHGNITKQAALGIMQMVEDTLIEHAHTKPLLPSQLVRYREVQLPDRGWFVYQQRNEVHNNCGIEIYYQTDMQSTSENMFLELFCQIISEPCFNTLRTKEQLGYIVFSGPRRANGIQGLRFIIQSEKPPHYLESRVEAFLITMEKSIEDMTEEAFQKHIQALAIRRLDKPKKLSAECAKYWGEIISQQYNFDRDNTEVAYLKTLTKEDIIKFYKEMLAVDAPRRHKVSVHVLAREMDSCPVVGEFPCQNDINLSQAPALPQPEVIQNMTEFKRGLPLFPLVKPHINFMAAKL

Aurora kinase A = biological target: T6, Aurora kinase A (Homo sapiens, UniProt O14965);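 note: value from the Navigating the Kinome kinase panel profiling, panel entry STK6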
T6 sequence (O14965 whole entry): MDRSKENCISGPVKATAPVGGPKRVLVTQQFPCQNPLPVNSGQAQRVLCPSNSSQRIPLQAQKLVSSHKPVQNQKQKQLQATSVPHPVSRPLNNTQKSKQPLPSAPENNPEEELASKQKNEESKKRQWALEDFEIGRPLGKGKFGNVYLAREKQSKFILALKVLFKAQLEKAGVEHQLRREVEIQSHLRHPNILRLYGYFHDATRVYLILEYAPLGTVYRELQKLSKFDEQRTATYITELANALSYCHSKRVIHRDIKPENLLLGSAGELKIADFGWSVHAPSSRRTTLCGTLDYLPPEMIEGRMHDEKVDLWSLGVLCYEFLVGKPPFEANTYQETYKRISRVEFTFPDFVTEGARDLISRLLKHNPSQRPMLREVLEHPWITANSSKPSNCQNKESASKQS

Aurora kinase B = Aurora kinase B (Homo sapiens, UniProt Q96GD4)
Sequence of Aurora kinase B (Q96GD4 whole entry): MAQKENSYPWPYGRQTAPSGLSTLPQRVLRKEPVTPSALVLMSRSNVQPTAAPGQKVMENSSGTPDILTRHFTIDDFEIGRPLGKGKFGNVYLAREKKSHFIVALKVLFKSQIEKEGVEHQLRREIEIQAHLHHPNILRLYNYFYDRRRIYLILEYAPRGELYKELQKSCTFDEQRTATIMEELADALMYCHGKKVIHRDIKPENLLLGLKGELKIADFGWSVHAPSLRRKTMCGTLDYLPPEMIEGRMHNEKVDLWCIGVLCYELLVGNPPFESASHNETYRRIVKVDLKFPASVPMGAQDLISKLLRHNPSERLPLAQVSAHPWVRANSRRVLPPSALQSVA

[17] = biological target: Vascular endothelial growth factor receptor 2 (Homo sapiens, UniProt P35968)
[18] = biological target: Melanin-concentrating hormone receptor 1 (Homo sapiens, UniProt Q99705); assay: Late-stage fluorescence-based counterscreen for antagonists of the G-protein coupled receptor 7 (GPR7): cell-based dose response assay to identify antagonists of the melanin-concentrating hormone receptor 1 (MCHR1) Set 5.
Sequence of Melanin-concentrating hormone receptor 1 (Q99705 whole entry): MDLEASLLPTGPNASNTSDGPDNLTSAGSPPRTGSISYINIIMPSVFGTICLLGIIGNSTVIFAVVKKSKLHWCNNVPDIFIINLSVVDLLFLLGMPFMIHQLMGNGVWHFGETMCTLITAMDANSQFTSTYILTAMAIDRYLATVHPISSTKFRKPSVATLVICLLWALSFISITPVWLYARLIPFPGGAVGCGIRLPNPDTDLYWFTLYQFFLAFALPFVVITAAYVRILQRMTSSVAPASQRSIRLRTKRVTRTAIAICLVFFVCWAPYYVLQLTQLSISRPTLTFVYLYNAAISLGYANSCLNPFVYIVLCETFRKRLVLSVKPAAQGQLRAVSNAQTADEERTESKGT

[19] = biological target: Multidrug resistance protein CDR1 (Candida albicans, UniProt P43071); assay: CaCDR1 efflux pump inhibitors in yeast, dose response, S. cerevisiae AD1-8u, singleplex, Cherry Pick1 hits (AID 588606)
[20] = biological target: Benomyl/methotrexate resistance protein (Candida albicans, UniProt P28873); assay: CaMdr1 efflux pump inhibitor potency, dose response, singleplex, Cherry Pick1 hits (AID 588608)

## Nc1nnc2cccc(Cl)n12
[1]
  Ki: 79.4 µM (active)
[2]
  Ki: 50.1 µM (active)
[3]
  Ki: 100 µM (active)
[4]
  Ki: 63.1 µM (active)
[5]
  Ki: 50.1 µM (active)
[6]
  Ki: 63.1 µM (active)
LIM domain kinase 1
  Ki: 63.1 µM (active)
[7]
  Ki: 63.1 µM (active)
[8]
  Ki: 100 µM (active)

## Nc1cc2c(Oc3ccc(Cl)cc3)cncc2s1
[9]
  Ki: 2.51 µM (active)
[10]
  Ki: 1.26 µM (active)
[11]
  Ki: 2.51 µM (active)
[12]
  Ki: 1 µM (active)

## O=C1Nc2ccccc2/C1=C/c1c[nH]c(-c2ccccc2)n1
[13]
  IC50: > 66.6 µM (inactive)
[14]
  IC50: 4.96 µM (active)
[15]
  EC50: 3.89 µM (active)
[16]
  IC50: 18.1 µM (not active)
Insulin-degrading enzyme
  IC50: > 55.9 µM (not active)

## CC(C)CC(CO)NC(=O)C=Cc1cnc(N)c2ccccc12 (centres undefined)
Aurora kinase A
  Ki: 1.58 µM (active)
Aurora kinase B
  Ki: 0.0158 µM (active)
[17]
  Ki: > 5.01 µM (inactive)

## O=c1c(Oc2ccc3c(c2)CCC3)c(Cl)cnn1Cc1cccc2ccccc12
[18]
  IC50: 17.9 µM (inactive)

## COc1ccc2sc(-c3ccccc3OC)c(-c3ccc(OCCN4CCOCC4)cc3)c2c1
[19]
  EC50: 10 µM (active)
[20]
  EC50: 10.6 µM (active)
